Among the data in patent publication US20160108027A1, “SUBSTITUTED BENZOXAZOLES” (BAYER PHARMA AKTIENGESELLSCHAFT, priority 2013, published 2016) are IC50 values, retold here.

The target in experiment [1] is T1, thrombin (Homo sapiens, UniProt P00734). In words: Measurement of the thrombin inhibition in buffer. It counts as biochemical. The note with it: human thrombin 0.06 nmol/l in Tris buffer pH 7.4, 22° C., substrate Boc-Asp(OBzl)-Pro-Arg-AMC; in some cases means of individual determinations. The protocol:
To determine the thrombin inhibition of the substances listed above, a biochemical test system is constructed in which the conversion of a thrombin substrate is used for determining the enzymatic activity of human thrombin. Here, thrombin cleaves aminomethylcoumarin, which is measured fluorescently, from the peptic substrate. The determinations are carried out in microtitre plates.
Substances to be tested are dissolved in various concentrations in dimethyl sulphoxide and incubated for 15 min with human thrombin (0.06 nmol/l dissolved in 50 mmol/l of Tris buffer [C,C,C-tris(hydroxymethyl)aminomethane], 100 mmol/l of sodium chloride, 0.1% BSA [bovine serum albumin], pH 7.4) at 22° C. The substrate (5 μmol/l Boc-Asp(OBzl)-Pro-Arg-AMC from Bachem) is then added. After 30 min of incubation, the sample is excited at a wavelength of 360 nm and the emission is measured at 460 nm. The measured emissions of the test mixtures with test substance are compared to the control mixtures without test substance (only dimethyl sulphoxide instead of test substance in dimethyl sulphoxide) and IC50 values are calculated from the concentration/activity relationships. Representative activity data from this test are given in Table 1 below (in some cases as means of individual determinations): […]

Experiment [2] concerns the target T1, thrombin. Put plainly: Determination of the thrombin-inhibitory activity in plasma samples (ecarin-activated). The class given is biochemical. The note with it: citrate plasma, ecarin activation, fluorogenic thrombin substrate; in some cases means of individual determinations. The protocol:
To determine the inhibition of thrombin in plasma samples, plasma […] is activated by ecarin. Thrombin activity and/or its inhibition by potential inhibitors is/are then measured fluorenscently by addition of a substrate.
The substances to be tested are dissolved in various concentrations in dimethyl sulphoxide and diluted with water. In white 96-well flat-bottomed plates, 20 μl of substance dilution are mixed with 20 μl of ecarin solution (ecarin reagent, from Sigma E-0504, final concentration 20 mU per reaction) in Ca buffer (200 mM Hepes+560 mM sodium chloride+10 mM calcium chloride+0.4% PEG) or with 20 μl of Ca buffer (as unstimulated control). Furthermore, 20 μl of fluorogenic thrombin substrate (from Bachem 1-1120, final concentration 50 μmol/1) and 20 μl of citrate plasma (from Octapharma) are added, and the mixture is homogenized well. The plate is measured in a SpectraFluorplus Reader using a 360 nm excitation filter and a 465 nm emission filter every minute over 20 minutes. […] Representative activity data from this test are given in Table 2 below (in some cases as means of individual determinations): […]

Each structure is given as a SMILES string. pIC50: −log10 of the molar value.

By pIC50 is commonly meant the IC50 on a negative log10 scale, so that one unit is a factor of ten. Lower therefore signals a high IC50. Regarding `COc1cc(C(=O)N2CC(C)(CCO)OCC2(C)C)cc2nc(NCc3cc(Cl)ccn3)oc12` (single isomer, unassigned) [Example 33, (2-{[(4-Chloropyridin-2-yl)methyl]amino}-7-methoxy-1,3-benzoxazol-5-yl) [2-(2-hydroxyethyl)-2,5,5-trimethylmorpholin-4-yl]methanone], the pIC50 was 8.14 on thrombin [1] and 7.85 against thrombin [2].
The corresponding values for `COc1cc(C(=O)N2CC(C)(CC(C)O)OCC2(C)C)cc2nc(NCc3cc(Cl)ccn3)oc12` (single isomer, unassigned) [Example 35, (2-{[(4-Chloropyridin-2-yl)methyl]amino}-7-methoxy-1,3-benzoxazol-5-yl) [2-(2-hydroxypropyl)-2,5,5-trimethylmorpholin-4-yl]methanone] are 8.30 and 7.15.
For `COc1cc(C(=O)N2CC(C)OCC2C(C)(C)O)cc2nc(NCc3cc(Cl)ccn3)oc12` (single isomer, unassigned) [Example 36, (2-{[(4-Chloropyridin-2-yl)methyl]amino}-7-methoxy-1,3-benzoxazol-5-yl) [5-(2-hydroxypropan-2-yl)-2-methylmorpholin-4-yl]methanone], the negative-log IC50 (pIC50) against thrombin [1] was 7.41; against thrombin [2], 7.24.
The corresponding values for `COc1cc(C(=O)N2CC(C)OCC2C(C)(C)O)cc2nc(NCc3cc(Cl)ccn3)oc12` (single isomer, unassigned) [Example 37, (2-{[(4-Chloropyridin-2-yl)methyl]amino}-7-methoxy-1,3-benzoxazol-5-yl) [5-(2-hydroxypropan-2-yl)-2-methylmorpholin-4-yl]methanone] are 7.43 and 7.36.
Turning to `COc1cc(C(=O)N2CC(C)(C)OCC2(C)CO)cc2nc(NCc3cc(Cl)ccn3)oc12` (single isomer, unassigned) [Example 39, (2-{[(4-Chloropyridin-2-yl)methyl]amino}-7-methoxy-1,3-benzoxazol-5-yl) [5-(hydroxymethyl)-2,2,5-trimethylmorpholin-4-yl]methanone], the pIC50 was 7.96 against thrombin [1] and 7.40 against thrombin [2].
Turning to `COc1cc(C(=O)N2CC(C)(C)OCC2(C)CO)cc2nc(NCc3cc(Cl)ccn3)oc12` (single isomer, unassigned) [Example 40, (2-{[(4-Chloropyridin-2-yl)methyl]amino}-7-methoxy-1,3-benzoxazol-5-yl) [5-(hydroxymethyl)-2,2,5-trimethylmorpholin-4-yl]methanone], the results for the pIC50 against thrombin [1] and against thrombin [2] were 7.74 and 7.48, respectively.
The matching figures for `COc1cc(C(=O)N2CC(C)(C)OCC2CF)cc2nc(NCc3cc(Cl)ccn3)oc12` (single isomer, unassigned) [Example 43, (2-{[(4-Chloropyridin-2-yl)methyl]amino}-7-methoxy-1,3-benzoxazol-5-yl) [5-(fluoromethyl)-2,2-dimethylmorpholin-4-yl]methanone]: 7.74 and 7.77.
The matching figures for `COc1cc(C(=O)N2CC(C)OCC2(C)C)cc2nc(NCc3cc(Cl)ccn3)oc12` (single isomer, unassigned) [Example 45, (2-{[(4-Chloropyridin-2-yl)methyl]amino}-7-methoxy-1,3-benzoxazol-5-yl)(2,5,5-trimethylmorpholin-4-yl)methanone]: 7.62 and 7.39.
The matching figures for `COc1cc(C(=O)N2CC(C)OCC2C2CC(O)C2)cc2nc(NCc3cc(Cl)ccn3)oc12` (single isomer, unassigned) [Example 47, (2-{[(4-Chloropyridin-2-yl)methyl]amino}-7-methoxy-1,3-benzoxazol-5-yl) [5-(3-hydroxycyclobutyl)-2-methylmorpholin-4-yl]methanone]: 7.96 and 7.62.
Take `COc1cc(C(=O)N2CC(C)OCC2C2CC(O)C2)cc2nc(NCc3cc(Cl)ccn3)oc12` (single isomer, unassigned) [Example 48, (2-{[(4-Chloropyridin-2-yl)methyl]amino}-7-methoxy-1,3-benzoxazol-5-yl) [5-(3-hydroxycyclobutyl)-2-methylmorpholin-4-yl]methanone]: the pIC50 was 7.96 against thrombin [1] and 7.80 against thrombin [2].
Regarding `COc1cc(C(=O)N2CC(C)OCC2C2CC(O)C2)cc2nc(NCc3cc(Cl)ccn3)oc12` (single isomer, unassigned) [Example 49, (2-{[(4-Chloropyridin-2-yl)methyl]amino}-7-methoxy-1,3-benzoxazol-5-yl) [5-(3-hydroxycyclobutyl)-2-methylmorpholin-4-yl]methanone], the values for the pIC50 against thrombin [1] and on thrombin [2] were 7.62 and 7.28, respectively.
The corresponding values for `COc1cc(C(=O)N2CC(C)OCC2C2CC(O)C2)cc2nc(NCc3cc(Cl)ccn3)oc12` (single isomer, unassigned) [Example 50, (2-{[(4-Chloropyridin-2-yl)methyl]amino}-7-methoxy-1,3-benzoxazol-5-yl) [5-(3-hydroxycyclobutyl)-2-methylmorpholin-4-yl]methanone] are 7.92 and 7.55.
The matching figures for `COc1cc(C(=O)N2CC(C)OCC2C2CC(O)C2)cc2nc(NCc3cc(Cl)ccn3)oc12` (single isomer, unassigned) [Example 51, (2-{[(4-Chloropyridin-2-yl)methyl]amino}-7-methoxy-1,3-benzoxazol-5-yl) [5-(3-hydroxycyclobutyl)-2-methylmorpholin-4-yl]methanone]: 8.10 and 7.77.
Regarding `COc1cc(C(=O)N2CC(C)OCC2C2CC(O)C2)cc2nc(NCc3cc(Cl)ccn3)oc12` (single isomer, unassigned) [Example 52, (2-{[(4-Chloropyridin-2-yl)methyl]amino}-7-methoxy-1,3-benzoxazol-5-yl) [5-(3-hydroxycyclobutyl)-2-methylmorpholin-4-yl]methanone], the pIC50 against thrombin [1] is 7.55; on thrombin [2], 7.47.
The matching figures for `COc1cc(C(=O)N2CC(C)OCC23CC(O)C3)cc2nc(NCc3cc(Cl)ccn3)oc12` (single isomer, unassigned) [Example 53, (2-{[(4-Chloropyridin-2-yl)methyl]amino}-7-methoxy-1,3-benzoxazol-5-yl)(2-hydroxy-7-methyl-8-oxa-5-azaspiro[3.5]non-5-yl)methanone]: 7.44 and 7.31.
`COc1cc(C(=O)N2CC(C)OCC2CC(C)(C)O)cc2nc(NCc3cc(Cl)ccn3)oc12` (single isomer, unassigned) [Example 56, (2-{[(4-Chloropyridin-2-yl)methyl]amino}-7-methoxy-1,3-benzoxazol-5-yl) [5-(2-hydroxy-2-methylpropyl)-2-methylmorpholin-4-yl]methanone]: the pIC50 is 7.60 against thrombin [1] and 7.24 at thrombin [2].
The matching figures for `COc1cc(C(=O)N2CC(C)OCC2CC(C)(C)O)cc2nc(NCc3cc(Cl)ccn3)oc12` (single isomer, unassigned) [Example 57, (2-{[(4-Chloropyridin-2-yl)methyl]amino}-7-methoxy-1,3-benzoxazol-5-yl) [5-(2-hydroxy-2-methylpropyl)-2-methylmorpholin-4-yl]methanone]: 7.70 and 7.52.
